Tested on: germfree diabetic rats
Test: Gingival collagenolytic activity, bone loss and skin collagen in germ-free streptozotocin-diabetic rats
Format: in vivo, rat
Protocol: At this time (6 weeks after purchase), diabetes was induced in some of the animals, as described above in a), and the control and diabetic animals maintained under germfree conditions for an additional 6 weeks prior to sacrifice. […] Blood and tissues were then obtained to assess gingival collagenolytic enzyme activity and the loss of skin collagen and bone. The results are set forth below and illustrated in FIG. II. Alveolar bone loss was assessed in the right and left mandibles of both the conventional and germfree rats (control and diabetic) using a modification of a previously described technique (Stralfors, et.al, Archs. Oral. Biol., 12, 1213-1216 (1967); Heijl, et. al., J. […] Periodontal Res., 13, 316-325 (1978)) using an eye-piece micrometer in a dissecting microscope (20× magnification). Because uncontrolled diabetes in the rat results in the massive resorption of skin collagen associated with increased collagenase activity in this tissue, the collagen content of entire skins from the germfree and from the conventional control and diabetic rats, including those treated with minocycline was measured. The techniques used were those described by […] and Golub, (Streptozotocin: Fundamentals and Therapy (Ed. M. K. Agarwal, Elsevier/North-Holland Biomed Press, Chapter 12, pp 161-182, (1981)). The techniques used to measure the collagenolytic enzyme activity of gingival tissue in culture, and in polymorphonuclear leucocytes (PMNLs), are those described by Golub, et. al., (J. Dent. Res., 57, 520-525 (197)8) and Nicoll, et. al., (Experimentia, 37, 315-317, (1981)) with minor modifications.

CN(C)c1ccc(O)c2c1C[C@H]1C[C@H]3[C@H](N(C)C)C(O)=C(C(N)=O)C(=O)[C@@]3(O)C(O)=C1C2=O [minocycline, Minocycline]
increase of skin collagen levels (germ-free diabetic rats, 20 mg/day for the last 4 weeks, versus untreated diabetics): 45%
bone levels (germfree control, diabetic and minocycline-treated diabetic rats): no differences
reduction of gingival collagenolytic activity (tissue culture) (germfree diabetic rats, 20 mg/day by gavage for the last 4 weeks): 70%

Source: patent publication US4666897A, “Inhibition of mammalian collagenolytic enzymes by tetracyclines” (Research Foundation of State University, priority 1983, dated 1987)
